Results as given in patent US11091498B2, “Topoisomerase poisons” (Rutgers, The State University of New Jersey, priority 2016, dated 2021).

Tested on: KBH5.0 (a variant that overexpresses BCRP)
Experiment: Test B. Efflux Assay: relative cytotoxicity, parent KB3-1 vs KBH5.0
Assay type: cell-based
Conditions: relative cytotoxicity between parent KB3-1 and variant KBH5.0 cell lines
Experimental: The ability of a compound described herein to be actively transported can be determined using pharmacological models that are well known in the art, for example, using a model like test B described below.
The cytotoxicity of the representative compounds of the invention were also tested against cell line KB3-1 (parent cell line), KBV-1 (a variant that overexpresses efflux transporter MDR1) and KBH5.0 (a variant that overexpresses BCRP). Differences in the relative cytotoxicity between the parent and variant cell lines may be indicative of a compound that is a substrate for an efflux transporter. […] Accordingly, compounds of the invention may be useful to treat tumors that are resistant to other anticancer agents, including anticancer agents that are susceptible to efflux by BCRP (e.g. anthracyclines, mitoxantrone, topotecan, irinotecan, bisanthrone, doxorubicin, daunorubicin, and epirubin.

COc1cc2c(=O)n(CCN(C)C(=O)C3CCN(C)CC3)c3c4cc5c(cc4ncc3c2cc1OC)OCO5 [Example 2]
substrate for efflux transporter BCRP: not a substrate for BCRP
